ChEMBL document CHEMBL4804286, “3-amino-4-(4-(4 (dimethylcarbamoyl) phenyl)-1,4-diazepan-1-yl) thieno [2,3-b] pyridine-2-carboxamide for use in cancer therapy and formulations comprising the same” (2020)
Several values for one entry are separate records, joined by “and”; a condition that tells them apart may be missing. Identical values can stand only once. Activity calls are given as the source filed them. The calls are words filed in the database; no cut-off is given here.

Key:
[1] = tested on: Phosphatidylinositol 4,5-bisphosphate 3-kinase catalytic subunit alpha isoform (Homo sapiens), P42336 [C420R]; experiment: Inhibition of human PIK3CA C420R mutant assessed as percent of control at 2000 nM by KINOMEscan assay relative to control; set-up: scale not given: the % may be the effect or the level left
[2] = biological target: Serine/threonine-protein kinase Sgk2 (Homo sapiens) (UniProt Q9HBY8); experiment: Inhibition of human SGK2 assessed as percent of control at 2000 nM by KINOMEscan assay relative to control; set-up: scale not given: the % may be the effect or the level left
Sequence of Serine/threonine-protein kinase Sgk2 (Homo sapiens) (Q9HBY8 whole entry): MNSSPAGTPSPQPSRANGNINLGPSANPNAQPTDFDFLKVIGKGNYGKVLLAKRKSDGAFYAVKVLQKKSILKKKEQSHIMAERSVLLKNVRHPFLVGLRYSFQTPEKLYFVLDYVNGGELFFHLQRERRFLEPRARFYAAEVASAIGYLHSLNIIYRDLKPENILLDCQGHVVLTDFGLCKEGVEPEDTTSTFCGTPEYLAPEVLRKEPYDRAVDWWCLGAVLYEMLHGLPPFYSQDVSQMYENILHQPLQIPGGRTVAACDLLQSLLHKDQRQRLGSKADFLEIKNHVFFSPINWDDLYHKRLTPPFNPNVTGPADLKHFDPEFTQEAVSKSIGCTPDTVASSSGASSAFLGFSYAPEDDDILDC

[3] = biological target: Serine/threonine-protein kinase tousled-like 2 (Homo sapiens) (UniProt Q86UE8); experiment: Inhibition of human TLK2 assessed as percent of control at 2000 nM by KINOMEscan assay relative to control; set-up: scale not given: the % may be the effect or the level left
Sequence of Serine/threonine-protein kinase tousled-like 2 (Homo sapiens) (Q86UE8 whole entry, looked up): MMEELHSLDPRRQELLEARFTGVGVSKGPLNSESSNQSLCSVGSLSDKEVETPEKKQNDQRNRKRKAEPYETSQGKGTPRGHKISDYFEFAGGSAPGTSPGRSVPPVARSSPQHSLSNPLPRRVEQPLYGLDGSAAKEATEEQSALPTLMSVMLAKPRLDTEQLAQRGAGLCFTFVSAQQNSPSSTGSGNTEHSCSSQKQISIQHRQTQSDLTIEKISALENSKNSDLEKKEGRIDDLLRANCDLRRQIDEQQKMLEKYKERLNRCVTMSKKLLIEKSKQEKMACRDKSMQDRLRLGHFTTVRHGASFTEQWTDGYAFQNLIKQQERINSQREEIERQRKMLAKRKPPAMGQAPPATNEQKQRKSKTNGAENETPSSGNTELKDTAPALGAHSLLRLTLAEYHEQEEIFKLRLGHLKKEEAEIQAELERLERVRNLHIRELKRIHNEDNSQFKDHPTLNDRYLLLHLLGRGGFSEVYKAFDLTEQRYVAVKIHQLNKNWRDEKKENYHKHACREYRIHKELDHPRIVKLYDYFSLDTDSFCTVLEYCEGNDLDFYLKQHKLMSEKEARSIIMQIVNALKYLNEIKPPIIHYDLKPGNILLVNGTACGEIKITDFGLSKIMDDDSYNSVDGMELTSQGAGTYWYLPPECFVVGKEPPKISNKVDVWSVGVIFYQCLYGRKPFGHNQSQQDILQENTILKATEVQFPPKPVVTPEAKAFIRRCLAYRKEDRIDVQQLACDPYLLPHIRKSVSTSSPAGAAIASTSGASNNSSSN

[4] = biological target: Serine/threonine-protein kinase Chk2 (Homo sapiens) (UniProt O96017); experiment: Inhibition of human CHEK2 assessed as percent of control at 2000 nM by KINOMEscan assay relative to control; set-up: scale not given: the % may be the effect or the level left
[5] = biological target: Serine/threonine-protein kinase LATS2 (Homo sapiens) (UniProt Q9NRM7); experiment: Inhibition of human LATS2 assessed as percent of control at 2000 nM by KINOMEscan assay relative to control; set-up: scale not given: the % may be the effect or the level left
[6] = biological target: Tyrosine-protein kinase JAK1 (Homo sapiens) (UniProt P23458); experiment: Inhibition of human JAK1 JH2 pseudokinase domain assessed as percent of control at 2000 nM by KINOMEscan assay relative to control; set-up: scale not given: the % may be the effect or the level left
[7] = biological target: Mitogen-activated protein kinase kinase kinase 12 (Homo sapiens) (UniProt Q12852); experiment: Inhibition of human DLK assessed as percent of control at 2000 nM by KINOMEscan assay relative to control; set-up: scale not given: the % may be the effect or the level left
[8] = tested on: ALK tyrosine kinase receptor (Homo sapiens), Q9UM73 [L1196M]; experiment: Inhibition of human ALK L1196M mutant assessed as percent of control at 2000 nM by KINOMEscan assay relative to control; set-up: scale not given: the % may be the effect or the level left
Sequence of ALK tyrosine kinase receptor (Homo sapiens), Q9UM73 [L1196M] (Q9UM73 whole entry L1196M, looked up): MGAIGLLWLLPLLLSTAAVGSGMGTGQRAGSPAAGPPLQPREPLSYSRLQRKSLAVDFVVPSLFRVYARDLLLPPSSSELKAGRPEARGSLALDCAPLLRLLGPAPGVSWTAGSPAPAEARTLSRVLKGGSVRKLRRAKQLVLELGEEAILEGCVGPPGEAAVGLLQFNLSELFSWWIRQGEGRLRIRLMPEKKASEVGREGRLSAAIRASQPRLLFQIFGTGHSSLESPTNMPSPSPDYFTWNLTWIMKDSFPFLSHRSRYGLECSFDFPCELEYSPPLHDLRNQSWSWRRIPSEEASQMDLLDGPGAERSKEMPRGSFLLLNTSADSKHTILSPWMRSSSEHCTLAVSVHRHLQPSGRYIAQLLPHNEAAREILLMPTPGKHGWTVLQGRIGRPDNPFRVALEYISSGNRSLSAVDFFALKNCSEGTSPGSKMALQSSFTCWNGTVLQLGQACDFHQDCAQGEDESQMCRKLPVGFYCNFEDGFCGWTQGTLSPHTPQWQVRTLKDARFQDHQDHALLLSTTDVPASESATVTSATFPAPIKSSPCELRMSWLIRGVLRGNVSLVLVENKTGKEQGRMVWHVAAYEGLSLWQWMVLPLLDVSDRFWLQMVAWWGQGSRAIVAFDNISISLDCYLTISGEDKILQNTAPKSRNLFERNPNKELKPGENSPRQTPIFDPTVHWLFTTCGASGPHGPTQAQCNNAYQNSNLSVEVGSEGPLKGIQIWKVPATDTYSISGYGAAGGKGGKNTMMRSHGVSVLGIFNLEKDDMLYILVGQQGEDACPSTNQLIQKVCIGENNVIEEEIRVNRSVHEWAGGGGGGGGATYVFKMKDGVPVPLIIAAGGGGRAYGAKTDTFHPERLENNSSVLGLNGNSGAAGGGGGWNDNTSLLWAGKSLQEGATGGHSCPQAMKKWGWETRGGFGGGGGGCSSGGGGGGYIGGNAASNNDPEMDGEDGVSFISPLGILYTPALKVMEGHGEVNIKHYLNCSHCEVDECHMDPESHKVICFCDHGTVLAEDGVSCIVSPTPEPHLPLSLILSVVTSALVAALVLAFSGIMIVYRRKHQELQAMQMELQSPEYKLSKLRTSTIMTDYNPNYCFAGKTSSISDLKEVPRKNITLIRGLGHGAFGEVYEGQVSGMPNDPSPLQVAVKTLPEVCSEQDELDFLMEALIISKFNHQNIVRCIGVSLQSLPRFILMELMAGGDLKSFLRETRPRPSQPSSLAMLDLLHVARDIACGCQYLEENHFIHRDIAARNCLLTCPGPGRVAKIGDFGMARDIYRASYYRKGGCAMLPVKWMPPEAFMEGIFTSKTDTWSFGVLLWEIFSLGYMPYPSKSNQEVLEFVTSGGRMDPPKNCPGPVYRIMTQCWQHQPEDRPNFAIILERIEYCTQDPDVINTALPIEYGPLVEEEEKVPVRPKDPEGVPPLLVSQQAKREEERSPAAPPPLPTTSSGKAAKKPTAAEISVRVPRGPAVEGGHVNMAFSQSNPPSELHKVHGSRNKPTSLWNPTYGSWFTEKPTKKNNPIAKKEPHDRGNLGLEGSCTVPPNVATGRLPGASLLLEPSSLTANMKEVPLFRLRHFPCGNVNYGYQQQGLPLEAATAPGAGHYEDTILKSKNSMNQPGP

[9] = biological target: Cyclin-G-associated kinase (Homo sapiens) (UniProt O14976); experiment: Inhibition of human GAK assessed as percent of control at 2000 nM by KINOMEscan assay relative to control; set-up: scale not given: the % may be the effect or the level left
[10] = biological target: Insulin receptor-related protein (Homo sapiens) (UniProt P14616); experiment: Inhibition of human INSRR assessed as percent of control at 2000 nM by KINOMEscan assay relative to control; set-up: scale not given: the % may be the effect or the level left
[11] = biological target: Serine/threonine-protein kinase 26 (Homo sapiens) (UniProt Q9P289); experiment: Inhibition of human MST4 assessed as percent of control at 2000 nM by KINOMEscan assay relative to control; set-up: scale not given: the % may be the effect or the level left
[12] = biological target: Cyclin-dependent kinase 19 (Homo sapiens) (UniProt Q9BWU1); experiment: Inhibition of human CDK11 assessed as percent of control at 2000 nM by KINOMEscan assay relative to control; set-up: scale not given: the % may be the effect or the level left; settings: INHIBITOR
[13] = biological target: Serine/threonine-protein kinase ULK3 (Homo sapiens) (UniProt Q6PHR2); experiment: Inhibition of human ULK3 assessed as percent of control at 2000 nM by KINOMEscan assay relative to control; set-up: scale not given: the % may be the effect or the level left
[14] = biological target: Mitogen-activated protein kinase kinase kinase 5 (Homo sapiens) (UniProt Q99683); experiment: Inhibition of human ASK1 assessed as percent of control at 2000 nM by KINOMEscan assay relative to control; set-up: scale not given: the % may be the effect or the level left
[15] = biological target: Macrophage-stimulating protein receptor (Homo sapiens) (UniProt Q04912); experiment: Inhibition of human MST1R assessed as percent of control at 2000 nM by KINOMEscan assay relative to control; set-up: scale not given: the % may be the effect or the level left
[16] = biological target: Serine/threonine-protein kinase TNNI3K (Homo sapiens) (UniProt Q59H18); experiment: Inhibition of human TNNI3K assessed as percent of control at 2000 nM by KINOMEscan assay relative to control; set-up: scale not given: the % may be the effect or the level left
[17] = biological target: MAP/microtubule affinity-regulating kinase 4 (Homo sapiens) (UniProt Q96L34); experiment: Inhibition of human MARK4 assessed as percent of control at 2000 nM by KINOMEscan assay relative to control; set-up: scale not given: the % may be the effect or the level left
4T1 = experiment: Antitumor activity against murine 4T1 cells xenografted in mouse assessed as suppression of tumor volume at 25 mg/kg, po administered twice a day; type: functional, organism-based
[18] = biological target: Ephrin type-B receptor 2 (Homo sapiens) (UniProt P29323); experiment: Inhibition of human EPHB2 assessed as percent of control at 2000 nM by KINOMEscan assay relative to control; set-up: scale not given: the % may be the effect or the level left
[19] = biological target: Vascular endothelial growth factor receptor 3 (Homo sapiens) (UniProt P35916); experiment: Inhibition of human FLT4 assessed as percent of control at 2000 nM by KINOMEscan assay relative to control; set-up: scale not given: the % may be the effect or the level left
[20] = biological target: Homeodomain-interacting protein kinase 1 (Homo sapiens) (UniProt Q86Z02); experiment: Inhibition of human HIPK1 assessed as percent of control at 2000 nM by KINOMEscan assay relative to control; set-up: scale not given: the % may be the effect or the level left
[21] = biological target: Protein kinase C delta type (Homo sapiens) (UniProt Q05655); experiment: Inhibition of human PRKCD assessed as percent of control at 2000 nM by KINOMEscan assay relative to control; set-up: scale not given: the % may be the effect or the level left
Sequence of Protein kinase C delta type (Homo sapiens) (Q05655 whole entry, looked up): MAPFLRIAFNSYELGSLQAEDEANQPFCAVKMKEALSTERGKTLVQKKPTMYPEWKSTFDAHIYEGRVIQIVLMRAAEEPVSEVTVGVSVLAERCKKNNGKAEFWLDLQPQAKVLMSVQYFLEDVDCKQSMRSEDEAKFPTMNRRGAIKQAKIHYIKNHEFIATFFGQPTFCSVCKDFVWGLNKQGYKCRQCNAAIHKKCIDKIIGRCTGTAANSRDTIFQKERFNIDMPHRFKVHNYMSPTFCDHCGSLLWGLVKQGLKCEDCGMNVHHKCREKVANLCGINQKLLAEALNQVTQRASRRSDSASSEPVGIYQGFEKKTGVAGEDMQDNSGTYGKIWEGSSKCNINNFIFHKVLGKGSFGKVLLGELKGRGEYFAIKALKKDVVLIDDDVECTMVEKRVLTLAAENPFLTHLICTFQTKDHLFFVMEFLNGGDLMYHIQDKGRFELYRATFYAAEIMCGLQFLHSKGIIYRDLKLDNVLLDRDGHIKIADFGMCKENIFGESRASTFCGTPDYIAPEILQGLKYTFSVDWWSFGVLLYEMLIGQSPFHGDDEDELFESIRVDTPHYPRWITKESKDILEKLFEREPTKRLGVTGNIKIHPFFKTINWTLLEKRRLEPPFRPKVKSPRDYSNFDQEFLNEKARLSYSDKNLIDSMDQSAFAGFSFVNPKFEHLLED

[22] = biological target: Serine/threonine-protein kinase SBK1 (Homo sapiens) (UniProt Q52WX2); experiment: Inhibition of human SBK1 assessed as percent of control at 2000 nM by KINOMEscan assay relative to control; set-up: scale not given: the % may be the effect or the level left
[23] = biological target: Phosphorylase b kinase gamma catalytic chain, skeletal muscle/heart isoform (Homo sapiens) (UniProt Q16816); experiment: Inhibition of human PHKG1 assessed as percent of control at 2000 nM by KINOMEscan assay relative to control; set-up: scale not given: the % may be the effect or the level left
[24] = biological target: Glycogen synthase kinase-3 alpha (Homo sapiens) (UniProt P49840); settings: INHIBITOR, dose 2000.0 nM
Description: Inhibition of human GSK3A at 2000 nM by KINOMEscan assay

[25] = tested on: Mast/stem cell growth factor receptor Kit (Homo sapiens), P10721 [V559D,T670I]; experiment: Inhibition of human KIT V559D/T670I double mutant assessed as percent of control at 2000 nM by KINOMEscan assay relative to control; set-up: scale not given: the % may be the effect or the level left
[26] = biological target: Epithelial discoidin domain-containing receptor 1 (Homo sapiens) (UniProt Q08345); experiment: Inhibition of human DDR1 assessed as percent of control at 2000 nM by KINOMEscan assay relative to control; set-up: scale not given: the % may be the effect or the level left
Sequence of Epithelial discoidin domain-containing receptor 1 (Homo sapiens) (Q08345 whole entry, the tested form may be a part): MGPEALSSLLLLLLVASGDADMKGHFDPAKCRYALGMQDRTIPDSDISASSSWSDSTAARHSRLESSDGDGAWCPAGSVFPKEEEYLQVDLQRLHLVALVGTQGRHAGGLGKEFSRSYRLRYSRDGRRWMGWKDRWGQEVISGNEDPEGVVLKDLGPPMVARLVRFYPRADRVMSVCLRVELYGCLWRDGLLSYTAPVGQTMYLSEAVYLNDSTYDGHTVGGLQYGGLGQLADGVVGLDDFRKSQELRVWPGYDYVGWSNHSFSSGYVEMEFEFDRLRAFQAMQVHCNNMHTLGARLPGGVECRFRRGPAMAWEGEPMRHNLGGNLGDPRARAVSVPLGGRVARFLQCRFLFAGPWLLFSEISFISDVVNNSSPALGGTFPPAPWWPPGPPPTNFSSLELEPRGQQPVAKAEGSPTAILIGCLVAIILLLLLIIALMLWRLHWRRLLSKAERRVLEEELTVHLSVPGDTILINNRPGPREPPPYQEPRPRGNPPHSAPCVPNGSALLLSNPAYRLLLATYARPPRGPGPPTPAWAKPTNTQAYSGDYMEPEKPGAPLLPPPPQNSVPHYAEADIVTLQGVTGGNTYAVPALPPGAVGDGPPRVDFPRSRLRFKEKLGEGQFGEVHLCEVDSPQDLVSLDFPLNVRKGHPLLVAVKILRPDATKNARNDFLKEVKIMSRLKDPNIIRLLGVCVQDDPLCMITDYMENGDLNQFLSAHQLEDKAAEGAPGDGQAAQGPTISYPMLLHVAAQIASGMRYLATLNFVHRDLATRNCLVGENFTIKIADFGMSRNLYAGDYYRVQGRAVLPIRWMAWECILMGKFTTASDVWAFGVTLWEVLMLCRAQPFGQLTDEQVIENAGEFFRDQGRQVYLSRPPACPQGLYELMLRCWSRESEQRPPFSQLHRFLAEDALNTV

[27] = biological target: Ribosomal protein S6 kinase alpha-1 (Homo sapiens) (UniProt Q15418); experiment: Inhibition of human N-terminal RSK1 kinase domain 1 assessed as percent of control at 2000 nM by KINOMEscan assay relative to control; set-up: scale not given: the % may be the effect or the level left
Sequence of Ribosomal protein S6 kinase alpha-1 (Homo sapiens) (Q15418 whole entry, the tested form may be a part): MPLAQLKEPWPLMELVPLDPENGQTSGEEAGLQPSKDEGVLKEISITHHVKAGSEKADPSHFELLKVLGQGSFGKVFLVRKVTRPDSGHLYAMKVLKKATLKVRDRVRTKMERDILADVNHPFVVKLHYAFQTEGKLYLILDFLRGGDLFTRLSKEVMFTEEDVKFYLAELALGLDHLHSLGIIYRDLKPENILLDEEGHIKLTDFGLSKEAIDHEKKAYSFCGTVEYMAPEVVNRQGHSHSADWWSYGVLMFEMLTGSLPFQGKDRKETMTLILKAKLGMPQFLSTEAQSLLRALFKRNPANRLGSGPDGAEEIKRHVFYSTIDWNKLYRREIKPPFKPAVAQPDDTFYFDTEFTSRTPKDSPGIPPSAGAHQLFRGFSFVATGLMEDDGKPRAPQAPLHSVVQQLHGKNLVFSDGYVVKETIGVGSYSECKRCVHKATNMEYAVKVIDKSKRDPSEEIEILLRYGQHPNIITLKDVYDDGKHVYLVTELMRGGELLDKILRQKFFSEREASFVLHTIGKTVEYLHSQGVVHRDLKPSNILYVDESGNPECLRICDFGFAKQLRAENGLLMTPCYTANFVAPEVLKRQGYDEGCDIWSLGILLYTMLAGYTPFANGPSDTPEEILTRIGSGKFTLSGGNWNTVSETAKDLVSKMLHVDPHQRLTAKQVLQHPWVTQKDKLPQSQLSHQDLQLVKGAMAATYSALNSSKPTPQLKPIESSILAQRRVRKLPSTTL

[28] = biological target: Receptor tyrosine-protein kinase erbB-2 (Homo sapiens) (UniProt P04626); experiment: Inhibition of human ERBB2 assessed as percent of control at 2000 nM by KINOMEscan assay relative to control; set-up: scale not given: the % may be the effect or the level left
[29] = biological target: Receptor tyrosine-protein kinase erbB-3 (Homo sapiens) (UniProt P21860); experiment: Inhibition of human ERBB3 assessed as percent of control at 2000 nM by KINOMEscan assay relative to control; set-up: scale not given: the % may be the effect or the level left
[30] = tested on: Proto-oncogene tyrosine-protein kinase receptor Ret (Homo sapiens), P07949 [V804M]; experiment: Inhibition of human RET V804M mutant assessed as percent of control at 2000 nM by KINOMEscan assay relative to control; set-up: scale not given: the % may be the effect or the level left

With `CN(C)C(=O)c1ccc(N2CCCN(c3ccnc4sc(C(N)=O)c(N)c34)CC2)cc1` the Activity [1] was 100% and 86%, the Activity [2] was 100% and 81% and the Activity [3] was 100% and 97%. It also gave an Activity [4] of 92%, an Activity [5] of 94% and an Activity ([5]; INHIBITOR) of 31%. The Activity [6] was 89%, the Activity [7] was 93% and 89% and the Activity [8] was 96% and 92%. The Activity [9] was 88% and 94%, the Activity [10] was 99% and 89% and the Activity [11] was 95% and 89%. For the same compound, the Activity [12] was 13% and 0%, the Activity [13] was 96% and 79% and the Activity [14] was 100%. The Activity [15] was 97% and 99%, the Activity [16] was 100% and the Activity [17] was 100% and 98%. The Activity (4T1) was “Active”, the Activity [18] was 99% and 95% and the Activity [19] was 92% and 98%. The Activity [20] was 86% and 71%, the Activity [21] was 100% and 92% and the Activity [22] was 100% and 83%. The Activity [23] was 94% and 97%, the inhibition [24] was greater than 65% and the Activity [25] was 100% and 96%. For the same compound, the Activity [26] was 82% and 90%, the Activity [27] was 98% and 96% and the Activity [28] was 100% and 89%. The Activity [29] was 100% and 88% and the Activity [30] was 100%.
